{"source": "paper PMC5131319", "about": "“Occurrence, temporal trends, and half-lives of perfluoroalkyl acids (PFAAs) in occupational workers in China” (Scientific Reports, 2016)", "key": {"[1]": {"assay": "Daily renal clearance rate (Clrenal) and serum-to-urine ratio from paired serum and urine", "format": "in vivo, human", "conditions": "for Renal clearance rate (PFOS): individual workers", "text": "The positive correlations between the PFAAs in the serum and the paired urine samples were highly statistically significant, with correlation coefficients of 0.87, 0.64, and 0.72 for PFHxS, PFOA, and PFOS, respectively, (p < 0.01). […] Additionally, the relative abundances of PFOS, PFHxS, and PFOA between the serum and paired urine samples were quite different. The relative abundances in the serum are 64%, 24%, and 12%, respectively, while those in the urine were 19%, 31%, and 40%, respectively. […] Moreover, the ratio of serum-to-urine concentrations (S/U) might be an indicator for PFAA excretion in humans because PFAAs could concentrate in serum while urine excretion is considered an important PFAA elimination pathway. The GM values of S/U for PFHxS, PFOA, and PFOS in all samples were 697, 288, and 1782, respectively, indicating the difficulty in PFAA renal elimination from the workers. To exclude the potential effect of individual differences related to demographic information such as body weight and gender, the daily renal clearance rate (Clrenal) was introduced in the study. Clrenal is a parameter defined in Eq (3) that adjusts the S/U through body weight and the gender-specific daily urine excretion volume.\nPaired samples with either concentration under the LOD were set as LOD/2 in the Clrenal study. The urine excretion volumes of males and females were set at 1.4 and 1.2 L/day in the study, respectively, and the body weight values of individual workers were obtained from our questionnaires. The calculated Clrenal values for PFHxS, PFOA, PFOS ranged from 2.0 × 10^−4 to 2.3, 9.0 × 10^−5 to 2.4, and 5.0 × 10^−5 to 0.54 mL day^−1 kg^−1 with GM values of 0.023, 0.067 and 0.010 mL day^−1 kg^−1, respectively (Fig. 3). The minimum values of the PFAAs Clrenal were calculated on the basis of LOD/2 instead of ND (not detected) in the present study. […] However, Zhang et al. observed that the Clrenal of PFHxS was the lowest among these 3 type of PFAAs[28]. The median Clrenal of PFAAs in the present study was similar to that of Zhou et al.’s study (0.012 mL day^−1 kg^−1 for PFHxS, 0.061 mL day^−1 kg^−1 for PFOA, and 0.010 mL day^−1 kg^−1 for PFOS)[39]. In contrast, as noted elsewhere, the Clrenal values of PFOA were the highest among those of the three PFAAs[28][38]. The most recent study on the elevated serum concentrations of PFAAs in fishery employees from Tangxun Lake also stated that the median Clrenal of PFOA (0.061 mL day^−1 kg^−1) was higher than those of the PFHxS and PFOS (0.012 and 0.010 mL day^−1 kg^−1)[39]. […] Moreover, the renal clearance rates of PFAAs in humans were not obviously influenced by the PFAAs level in the serum. […] In addition, gender could not be discounted. The Clrenal values of PFOS for the male workers were significant lower than those for the females (p < 0.01). Wong et al. studied the elimination rate constant of PFOS in a USA population and speculated that there might be other sex-specific elimination routes other than menstruation between men and women. No significant differences were found between the Clrenal values of PFOA and PFHxS for the males and females tested in the study."}, "[2]": {"design": "method as in PMID 23980546, PMID 12499116, PMID 20236705", "conditions": "set value; cited from earlier work"}, "[3]": {"assay": "Half-life estimated by daily clearance rates (first-order model, k = Cltotal/Vd)", "format": "in vivo, human", "text": "Olsen et al.[21] found linear relationship between the logarithm of serum PFAAs concentration and time, and a first order model was adopted to estimate the half-lives of PFAAs. The elimination of PFAAs in humans was also described with the following equation: […]\nIf we set C(t) as 1/2C0, then the half-life\nwhere k is the elimination rate constant. We calculated k using two approaches in the present study. In the first approach, k is defined as Cltotal/Vd, where Vd stands for the volume of distribution of PFAAs in the human body. Cltotal represents the total daily PFAAs clearance in the human body; for men and women older than 50, it refers to renal clearance, while for young women, it is defined as the sum of menstrual clearance and renal clearance. To keep consistency with other studies, Vd of PFOS and PFHxS were set at 230 mL kg^−1, and Vd of PFOA was set at 170 mL kg^−1 in this study. In the second approach, k is defined as the average annual decline rates of PFAAs in workers who participated in this study.\nWe used a first order model to estimate the half-lives of PFAAs in workers (Eq (2)). k was defined as […], where Cltotal referred to renal clearance for men and women older than 50 and to the sum of menstrual clearance and renal clearance for young women. According to Eq (2), the half-lives of PFHxS, PFOA, and PFOS for the occupational workers tested ranged from 0.51–3799 years, 0.44–3663 years, and 0.76–30475 years, with GM and median values of 14.7 and 11.7, 4.1 and 4.0, 32.6 and 21.6 years, respectively (Table 2). […] The GM values of the half-lives of PFHxS, PFOA, and PFOS for men here were 19.9, 4.7, and 60.9 years, respectively, while those for women were 7.5, 3.1, and 8.0 years, respectively. The half-lives estimated by the limited clearance route information could be considered as the upper limits for PFAAs. It seemed likely that the unrealistically long half-life estimates derived from the urinary data were actually evidence of the contribution of fecal elimination to the clearance of these chemicals. The extremely long half-lives of PFAAs, such as 3799 years for PFHxS, 3663 years for PFOA, and 30475 years for PFOS, were caused by the application of LOD/2 instead of ND in workers’ urine samples. The geometric mean or median value of the PFAAs half-lives can better reflect the actual situation."}, "[4]": {"conditions": "cited from earlier work"}, "[5]": {"conditions": "Female workers, number 71, menstrual clearance added to renal clearance"}}, "note": "Several values for one entry are separate records, joined by “and”; a condition that tells them apart may be missing. Equal values may be shown once."}
{"smiles": "O=S(=O)(O)C(F)(F)C(F)(F)C(F)(F)C(F)(F)C(F)(F)C(F)(F)C(F)(F)C(F)(F)F", "note": "[PFOS, perfluorooctanesulfonate]", "values": [{"measurement": "Ratio of serum-to-urine concentrations (S/U), GM", "setting": "[1]; all samples", "result": 1782}, {"measurement": "Clrenal, GM", "setting": "[1]; all workers", "result": 0.010, "unit": "mL/day/kg"}, {"measurement": "Clrenal, range", "setting": "[1]; all workers, minimum on the basis of LOD/2", "result": "5.0 × 10^−5 to 0.54 mL day^−1 kg^−1"}, {"measurement": "Renal clearance rate (PFOS)", "setting": "[1]; sampling year 2009", "result": "0.028 mL/day/kg and 0.066 mL/day/kg and 0.010 mL/day/kg and 0.013 mL/day/kg and 0.009 mL/day/kg and 0.037 mL/day/kg and 0.018 mL/day/kg and 0.001 mL/day/kg and 0.035 mL/day/kg and 0.004 mL/day/kg and 0.005 mL/day/kg and 0.006 mL/day/kg and 0.003 mL/day/kg and 0.019 mL/day/kg and 0.023 mL/day/kg and 0.007 mL/day/kg and 0.017 mL/day/kg and 0.024 mL/day/kg and 0.030 mL/day/kg and 0.014 mL/day/kg and 0.002 mL/day/kg and 0.032 mL/day/kg"}, {"measurement": "Renal clearance rate (PFOS)", "setting": "[1]; sampling year 2010", "result": "0.038 mL/day/kg and 0.013 mL/day/kg and 0.014 mL/day/kg and 0.058 mL/day/kg and 0.002 mL/day/kg and 0.004 mL/day/kg and 0.048 mL/day/kg and 0.039 mL/day/kg and 0.008 mL/day/kg and 0.005 mL/day/kg and 0.028 mL/day/kg and 0.009 mL/day/kg and 0.041 mL/day/kg and 0.007 mL/day/kg and 0.027 mL/day/kg and 0.026 mL/day/kg and 0.006 mL/day/kg and 0.034 mL/day/kg and 0.083 mL/day/kg and 0.020 mL/day/kg and 0.017 mL/day/kg and 0.025 mL/day/kg and 0.010 mL/day/kg"}, {"measurement": "Renal clearance rate (PFOS)", "setting": "[1]; sampling year 2011", "result": "0.007 mL/day/kg and 0.009 mL/day/kg and 0.024 mL/day/kg and 0.052 mL/day/kg and 0.018 mL/day/kg and 0.016 mL/day/kg and 0.028 mL/day/kg and 0.021 mL/day/kg and 0.017 mL/day/kg and 0.029 mL/day/kg and 0.004 mL/day/kg and 0.006 mL/day/kg and 0.003 mL/day/kg and 0.025 mL/day/kg and 0.001 mL/day/kg and 0.013 mL/day/kg and 0.023 mL/day/kg and 0.022 mL/day/kg and 0.020 mL/day/kg and 0.033 mL/day/kg and 0.002 mL/day/kg and 0.091 mL/day/kg and 0.039 mL/day/kg and 0.041 mL/day/kg"}, {"measurement": "Vd (volume of distribution in the human body)", "setting": "[2]", "result": 0.23, "unit": "L/kg"}, {"measurement": "Half-life estimated through daily elimination, GM", "setting": "[3]; [5]", "result": 8.0, "unit": "years"}, {"measurement": "Half-life estimated through daily elimination, Max", "setting": "[3]; [5]", "result": 15.1, "unit": "years"}, {"measurement": "Half-life estimated through daily elimination, Median", "setting": "[3]; [5]", "result": 9.4, "unit": "years"}, {"measurement": "Half-life estimated through daily elimination, Min", "setting": "[3]; [5]", "result": 0.76, "unit": "years"}, {"measurement": "Half-life estimated through daily elimination, Min", "setting": "[3]; Male workers, number 136, renal clearance", "result": 2.7, "unit": "years"}, {"measurement": "Half-life estimated through daily elimination, Min", "setting": "[3]; Total workers, number 207", "result": 0.76, "unit": "years"}, {"measurement": "Serum concentration in 85 percent of the sampled Chinese population", "setting": "[4]; general population", "result": "less than 100 ng mL^−1"}, {"measurement": "Serum concentration, median", "setting": "[4]; workers in another fluorochemical plant in China", "result": 33.5, "unit": "ng/mL"}, {"measurement": "Serum concentration, geometric mean", "setting": "[4]; workers of the 3 M Company", "result": 910, "unit": "ng/mL"}]}
